From publication PMC5021161 (Environmental and Molecular Mutagenesis, 2016)
Read-outs that look alike come from different tables or passages of the source.

Tests used:
[1] = system: TGx‐28.65 biomarker genes; conditions: 2015, cited from earlier work; for Dendogram TGx‐28.65 / NSC TGx‐28.65 / PCA TGx‐28.65: 1% BF/PB S9
[2] = system: TK6 cells; conditions: 1% BF/PB S9, ref Buick et al., 2015, cited from earlier work
[3] = system: TGx‐28.65 biomarker genes; conditions: for Dendogram TGx‐28.65 / NSC TGx‐28.65 / PCA TGx‐28.65: 4 hr + 3-4 hr recovery
[4] = system: ATF3; type: cell-based, human; conditions: 4 hr + 3-4 hr recovery
[5] = system: TK6 cells; conditions: for % Relative Survival: 4 hr + 20 hr recovery
[6] = system: TK6 cells; conditions: for % MN: 4 hr + 20 hr recovery; for statistically significant % MN increase relative to controls: for at least one concentration, definitive study
[7] = system: CDKN1A; type: cell-based, human; conditions: 4 hr + 3-4 hr recovery
[8] = system: TK6 cells; conditions: 4 hr + 20 hr recovery
[9] = system: GADD45A; type: cell-based, human; conditions: 4 hr + 3-4 hr recovery
[10] = system: ATF3, CDKN1A, and GADD45A; assay: RT‐qPCR of the three stress response genes; type: cell-based, human; conditions: 2% Aroclor‐induced S9
[11] = B6C3F1 mouse bone marrow cells; ref NTP, 1993; cited from earlier work
[12] = rats and mice; ref NTP, 1993; cited from earlier work
[13] = 2012, cited from earlier work
[14] = system: mammalian cells; conditions: Chinese hamster ovary cells; ref NTP, 1993; cited from earlier work
[15] = system: bacteria; conditions: ref NTP, 1993; cited from earlier work

## C[C@@H]1C[C@H]2[C@@H]3CCC4=CC(=O)C=C[C@]4(C)[C@@]3(F)[C@@H](O)C[C@]2(C)[C@@]1(O)C(=O)CO [Dexamethasone]
[1]; 0.63 mM, ref Buick et al.
  Dendogram TGx‐28.65: −
  NSC TGx‐28.65: −
  PCA TGx‐28.65: −
[1]; 1 mM, ref Buick et al.
  Dendogram TGx‐28.65: −
  NSC TGx‐28.65: −
  PCA TGx‐28.65: −
[2]; 0.63 mM
  % Apoptotic cells: 5.5%
[2]; 1 mM
  % Apoptotic cells: 12.2%

## c1ccc2c(c1)ccc1cc3c(ccc4ccccc43)cc12 [Dibenz[a,h]anthracene]
[3]; 1 μg/ml, 2% Aroclor S9
  Dendogram TGx‐28.65: +
  NSC TGx‐28.65: −
  PCA TGx‐28.65: −
[3]; 20 μg/ml, 2% Aroclor S9
  Dendogram TGx‐28.65: +
  NSC TGx‐28.65: +
  PCA TGx‐28.65: +
[3]; 280 μg/ml, 2% Aroclor S9
  Dendogram TGx‐28.65: +
  NSC TGx‐28.65: +
  PCA TGx‐28.65: +
[3]; low concentrations
  classification using TGx‐28.65: non‐genotoxic
[3]; lowest concentration
  classification by hierarchical cluster analysis (TGx‐28.65 genes): genotoxic
[3]; mid and high concentrations
  classification using TGx‐28.65: genotoxic
[4]; 1 μg/ml, 2% Aroclor S9
  ATF3 fold change vs vehicle control (+S9): 1.1 fold change
[4]; 20 μg/ml, 2% Aroclor S9
  ATF3 fold change vs vehicle control (+S9): 1.6 fold change
[4]; 280 μg/ml, 2% Aroclor S9
  ATF3 fold change vs vehicle control (+S9): 2.3 fold change
[5]; 1 μg/ml, 2% Aroclor S9
  % Relative Survival: 97.79%
[5]; 20 μg/ml, 2% Aroclor S9
  % Relative Survival: 64.12%
[5]; 280 μg/ml, 2% Aroclor S9
  % Relative Survival: 53.91%
[6]; 1 μg/ml, 2% Aroclor S9
  % MN: 2.16%
[6]; 20 μg/ml, 2% Aroclor S9
  % MN: 3.42%
[6]; 280 μg/ml, 2% Aroclor S9
  % MN: 3.80%
[6]
  statistically significant % MN increase relative to controls: over twofold
[7]; 1 μg/ml, 2% Aroclor S9
  CDKN1A fold change vs vehicle control (+S9): 1.2 fold change
[7]; 20 μg/ml, 2% Aroclor S9
  CDKN1A fold change vs vehicle control (+S9): 2.4 fold change
[7]; 280 μg/ml, 2% Aroclor S9
  CDKN1A fold change vs vehicle control (+S9): 4.2 fold change
[8]; 1 μg/ml, 2% Aroclor S9
  % Apoptotic cells: 9.74%
[8]; 20 μg/ml, 2% Aroclor S9
  % Apoptotic cells: 16.82%
[8]; 280 μg/ml, 2% Aroclor S9
  % Apoptotic cells: 31.79%
[9]; 1 μg/ml, 2% Aroclor S9
  GADD45A fold change vs vehicle control (+S9): 1.2 fold change
[9]; 20 μg/ml, 2% Aroclor S9
  GADD45A fold change vs vehicle control (+S9): 1.7 fold change
[9]; 280 μg/ml, 2% Aroclor S9
  GADD45A fold change vs vehicle control (+S9): 2.0 fold change

## CN(C)N=O [Dimethylnitrosamine]
[3]; 1 mM, 2% Aroclor S9
  Dendogram TGx‐28.65: −
  NSC TGx‐28.65: −
  PCA TGx‐28.65: −
[3]; 5 mM, 2% Aroclor S9
  Dendogram TGx‐28.65: +
  NSC TGx‐28.65: +
  PCA TGx‐28.65: +
[3]; 10 mM, 2% Aroclor S9
  Dendogram TGx‐28.65: +
  NSC TGx‐28.65: +
  PCA TGx‐28.65: +
[3]; 10% Aroclor‐induced S9, lowest concentration (1 mM)
  hierarchical cluster analysis with TGx‐28.65: on the same branch as non‐genotoxic agents
[3]; low concentrations
  classification using TGx‐28.65: non‐genotoxic
[3]; mid and high concentrations
  classification using TGx‐28.65: genotoxic
[4]; 1 mM, 2% Aroclor S9
  ATF3 fold change vs vehicle control (+S9): 0.8 fold change
[4]; 5 mM, 2% Aroclor S9
  ATF3 fold change vs vehicle control (+S9): 0.8 fold change
[4]; 10 mM, 2% Aroclor S9
  ATF3 fold change vs vehicle control (+S9): 0.8 fold change
[5]
  change in RS relative to DMSO controls: declines
[5]; 1 mM, 2% Aroclor S9
  % Relative Survival: 76.40%
[5]; 5 mM, 2% Aroclor S9
  % Relative Survival: 72.92%
[5]; 10 mM, 2% Aroclor S9
  % Relative Survival: 45.65%
[6]
  change in % MN relative to DMSO controls: Significant increases
  statistically significant % MN increase relative to controls: over twofold
[6]; 1 mM, 2% Aroclor S9
  % MN: 1.15%
[6]; 5 mM, 2% Aroclor S9
  % MN: 2.29%
[6]; 10 mM, 2% Aroclor S9
  % MN: 2.80%
[7]; 1 mM, 2% Aroclor S9
  CDKN1A fold change vs vehicle control (+S9): 1.0 fold change
[7]; 5 mM, 2% Aroclor S9
  CDKN1A fold change vs vehicle control (+S9): 1.3 fold change
[7]; 10 mM, 2% Aroclor S9
  CDKN1A fold change vs vehicle control (+S9): 1.2 fold change
[8]; 1 mM, 2% Aroclor S9
  % Apoptotic cells: 8.47%
[8]; 5 mM, 2% Aroclor S9
  % Apoptotic cells: 12.27%
[8]; 10 mM, 2% Aroclor S9
  % Apoptotic cells: 30.63%
[9]; 1 mM, 2% Aroclor S9
  GADD45A fold change vs vehicle control (+S9): 1.0 fold change
[9]; 5 mM, 2% Aroclor S9
  GADD45A fold change vs vehicle control (+S9): 1.2 fold change
[9]; 10 mM, 2% Aroclor S9
  GADD45A fold change vs vehicle control (+S9): 1.5 fold change
[10]
  induction of genes in the stress response panel: did not induce any of the genes

## c1ccoc1 [Furan]
[3]; 2 mM, 5% ethanol S9
  Dendogram TGx‐28.65: +
  NSC TGx‐28.65: +
  PCA TGx‐28.65: +
[3]; 3 mM, 5% ethanol S9
  Dendogram TGx‐28.65: +
  NSC TGx‐28.65: +
  PCA TGx‐28.65: +
[3]; 5 mM, 5% ethanol S9
  Dendogram TGx‐28.65: +
  NSC TGx‐28.65: +
  PCA TGx‐28.65: +
[11]
  chromosomal aberrations: causes chromosomal aberrations
[4]; 2 mM, 5% ethanol S9
  ATF3 fold change vs vehicle control (+S9): 2.3 fold change
[4]; 3 mM, 5% ethanol S9
  ATF3 fold change vs vehicle control (+S9): 3.1 fold change
[4]; 5 mM, 5% ethanol S9
  ATF3 fold change vs vehicle control (+S9): 5.4 fold change
[5]; 2 mM, 5% ethanol S9
  % Relative Survival: 80.06%
[5]; 3 mM, 5% ethanol S9
  % Relative Survival: 64.52%
[5]; 5 mM, 5% ethanol S9
  % Relative Survival: 48.45%
[5]; 2% Aroclor‐induced S9, data not shown
  effect on RS, range finder: did not cause a decline in RS
[6]; 2 mM, 5% ethanol S9
  % MN: 1.57%
[6]; 3 mM, 5% ethanol S9
  % MN: 1.77%
[6]; 5 mM, 5% ethanol S9
  % MN: 2.78%
[6]; 5% ethanol‐induced S9
  clastogenicity (analysis of MN): clastogenic at high concentrations
[6]
  statistically significant % MN increase relative to controls: over twofold
[7]; 2 mM, 5% ethanol S9
  CDKN1A fold change vs vehicle control (+S9): 3.2 fold change
[7]; 3 mM, 5% ethanol S9
  CDKN1A fold change vs vehicle control (+S9): 5.3 fold change
[7]; 5 mM, 5% ethanol S9
  CDKN1A fold change vs vehicle control (+S9): 9.8 fold change
[8]; 2 mM, 5% ethanol S9
  % Apoptotic cells: 7.07%
[8]; 3 mM, 5% ethanol S9
  % Apoptotic cells: 8.40%
[8]; 5 mM, 5% ethanol S9
  % Apoptotic cells: 15.26%
[12]
  carcinogenicity: causes liver cancer
[13]; Big Blue rats, ref McDaniel et al.
  liver DNA strand breaks, comet assay: DNA damage at high doses
[13]; F344 rats at cancer‐causing doses, ref Ding et al.
  DNA strand breaks by the comet assay: near‐linear dose‐dependent increase in DNA strand breaks
[9]; 2 mM, 5% ethanol S9
  GADD45A fold change vs vehicle control (+S9): 1.4 fold change
[9]; 3 mM, 5% ethanol S9
  GADD45A fold change vs vehicle control (+S9): 1.4 fold change
[9]; 5 mM, 5% ethanol S9
  GADD45A fold change vs vehicle control (+S9): 2.4 fold change
[14]
  chromosomal aberrations: causes chromosomal aberrations
[15]
  Ames test: negative

## N.N.[Cl][Pt][Cl] [cisplatin]
[1]; in the presence and absence of S9, ref Buick et al.
  classification using TGx‐28.65: accurately classified the genotoxicity

## CC(C)OS(C)(=O)=O [isopropyl methanesulfonate]
[1]; TK6 cells, biomarker development study, ref Li et al.
  classification using TGx‐28.65: genotoxic
